Assay results as given in ChEMBL document CHEMBL4507267 (2021).

How the values were obtained:
[1] = molecular target: Cyclin-dependent kinase 4 (Homo sapiens) (UniProt P11802); settings: Compound concentration 1000.0 nM
[2] = molecular target: Tyrosine-protein kinase BTK (Homo sapiens) (UniProt Q06187); settings: Compound concentration 1000.0 nM
[3] = molecular target: Mitogen-activated protein kinase kinase kinase 9 (Homo sapiens) (UniProt P80192); settings: Compound concentration 1000.0 nM
[4] = molecular target: 5-hydroxytryptamine receptor 7 (Homo sapiens) (UniProt P34969); settings: Compound concentration 10.0 uM
[5] = molecular target: Mitogen-activated protein kinase kinase kinase 6 (Homo sapiens) (UniProt O95382); settings: Compound concentration 1000.0 nM
[6] = molecular target: Serine/threonine-protein kinase Chk2 (Homo sapiens) (UniProt O96017); settings: Compound concentration 1000.0 nM
[7] = molecular target: Cyclin-dependent kinase-like 2 (Homo sapiens) (UniProt Q92772); settings: Compound concentration 1000.0 nM
[8] = molecular target: Inhibitor of nuclear factor kappa-B kinase subunit beta (Homo sapiens) (UniProt O14920); settings: Compound concentration 1000.0 nM
[9] = molecular target: Tyrosine-protein kinase Blk (Homo sapiens) (UniProt P51451); settings: Compound concentration 1000.0 nM
Rattus norvegicus = species on record: Rattus norvegicus; settings: Compound concentration 10.0 uM
[10] = molecular target: Solute carrier family 2, facilitated glucose transporter member 4 (Homo sapiens, UniProt P14672); test: Cell-based assay with CellTiter-Glo readout for ATP production with SLC2A4
[11] = molecular target: Serine/threonine-protein kinase PAK 4 (Homo sapiens) (UniProt O96013); settings: Compound concentration 1000.0 nM
Histamine H2 receptor = Histamine H2 receptor (Homo sapiens, UniProt P25021); test: GPCRScan assay: inhibition of H2; parameters: radioligand conc. used [nm] 0.02 – 0.05, parental cells Stable HEK
[12] = molecular target: Serine/threonine-protein kinase pim-1 (Homo sapiens) (UniProt P11309); settings: Compound concentration 1000.0 nM
[13] = tested on: Epidermal growth factor receptor (Homo sapiens), P00533 [G719C]; settings: Compound concentration 1000.0 nM
[14] = molecular target: Phosphatidylinositol 5-phosphate 4-kinase type-2 beta (Homo sapiens) (UniProt P78356); settings: Compound concentration 1000.0 nM
Histamine H1 receptor [15] = molecular target: T1, Histamine H1 receptor (Homo sapiens, UniProt P35367); test: GPCRScan assay: inhibition of H1; parameters: radioligand conc. used [nm] 0.6 – 2.0, parental cells stable HEK
[16] = molecular target: Solute carrier family 2, facilitated glucose transporter member 2 (Homo sapiens, UniProt P11168); test: Cell-based assay with CellTiter-Glo readout for ATP production with SLC2A2
[17] = molecular target: Sigma intracellular receptor 2 (Homo sapiens) (UniProt Q5BJF2); settings: Compound concentration 10.0 uM
Histamine H1 receptor [18] = molecular target: T1, Histamine H1 receptor; settings: Compound concentration 10.0 uM
[19] = molecular target: Sodium-dependent noradrenaline transporter (Homo sapiens) (UniProt P23975); settings: Compound concentration 10.0 uM
[20] = molecular target: Delta-type opioid receptor (Homo sapiens) (UniProt P41143); settings: Compound concentration 10.0 uM
[21] = molecular target: D(1A) dopamine receptor (Homo sapiens) (UniProt P21728); settings: Compound concentration 10.0 uM

Sequence of Serine/threonine-protein kinase PAK 4 (Homo sapiens) (O96013 whole entry, looked up): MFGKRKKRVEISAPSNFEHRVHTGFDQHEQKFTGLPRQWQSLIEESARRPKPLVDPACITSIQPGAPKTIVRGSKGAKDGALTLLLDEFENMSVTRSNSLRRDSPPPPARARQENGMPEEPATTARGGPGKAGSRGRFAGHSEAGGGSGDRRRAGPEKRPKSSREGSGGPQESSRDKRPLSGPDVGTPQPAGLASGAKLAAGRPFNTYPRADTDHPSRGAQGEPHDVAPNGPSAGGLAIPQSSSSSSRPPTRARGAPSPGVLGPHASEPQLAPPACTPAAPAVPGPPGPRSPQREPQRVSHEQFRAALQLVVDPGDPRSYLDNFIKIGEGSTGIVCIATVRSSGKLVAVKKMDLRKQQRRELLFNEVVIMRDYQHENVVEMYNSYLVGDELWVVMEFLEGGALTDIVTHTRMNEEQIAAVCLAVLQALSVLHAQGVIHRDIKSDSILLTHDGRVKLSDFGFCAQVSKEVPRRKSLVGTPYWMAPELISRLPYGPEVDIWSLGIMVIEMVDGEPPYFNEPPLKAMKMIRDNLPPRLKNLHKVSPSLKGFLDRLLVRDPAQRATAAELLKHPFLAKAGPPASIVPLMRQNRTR
Sequence of Phosphatidylinositol 5-phosphate 4-kinase type-2 beta (Homo sapiens) (P78356 whole entry): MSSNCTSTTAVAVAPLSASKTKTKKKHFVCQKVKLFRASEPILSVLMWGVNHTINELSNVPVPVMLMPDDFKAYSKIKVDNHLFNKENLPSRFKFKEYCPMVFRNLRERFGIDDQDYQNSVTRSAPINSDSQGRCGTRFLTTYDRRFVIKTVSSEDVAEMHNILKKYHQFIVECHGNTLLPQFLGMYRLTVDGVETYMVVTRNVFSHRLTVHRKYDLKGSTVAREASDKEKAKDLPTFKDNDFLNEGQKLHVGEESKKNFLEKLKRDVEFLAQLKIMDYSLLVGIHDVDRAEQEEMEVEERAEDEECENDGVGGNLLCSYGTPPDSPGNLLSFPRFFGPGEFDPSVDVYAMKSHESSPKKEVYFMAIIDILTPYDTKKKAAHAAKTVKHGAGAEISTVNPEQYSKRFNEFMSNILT
T1 sequence (P35367 whole entry): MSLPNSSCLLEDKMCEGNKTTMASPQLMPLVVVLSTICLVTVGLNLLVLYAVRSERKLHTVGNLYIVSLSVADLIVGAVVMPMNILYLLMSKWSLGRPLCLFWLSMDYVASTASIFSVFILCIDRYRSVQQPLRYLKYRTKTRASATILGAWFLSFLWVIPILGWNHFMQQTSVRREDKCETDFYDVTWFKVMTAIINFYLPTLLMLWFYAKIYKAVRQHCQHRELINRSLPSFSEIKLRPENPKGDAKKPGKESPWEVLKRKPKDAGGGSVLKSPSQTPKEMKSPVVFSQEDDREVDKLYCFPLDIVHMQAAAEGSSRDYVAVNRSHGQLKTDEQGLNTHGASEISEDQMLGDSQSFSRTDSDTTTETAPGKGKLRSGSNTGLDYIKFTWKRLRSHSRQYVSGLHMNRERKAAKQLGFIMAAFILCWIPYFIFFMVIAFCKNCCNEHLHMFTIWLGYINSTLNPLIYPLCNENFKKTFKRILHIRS
Sequence of Mitogen-activated protein kinase kinase kinase 9 (Homo sapiens) (P80192 whole entry, looked up): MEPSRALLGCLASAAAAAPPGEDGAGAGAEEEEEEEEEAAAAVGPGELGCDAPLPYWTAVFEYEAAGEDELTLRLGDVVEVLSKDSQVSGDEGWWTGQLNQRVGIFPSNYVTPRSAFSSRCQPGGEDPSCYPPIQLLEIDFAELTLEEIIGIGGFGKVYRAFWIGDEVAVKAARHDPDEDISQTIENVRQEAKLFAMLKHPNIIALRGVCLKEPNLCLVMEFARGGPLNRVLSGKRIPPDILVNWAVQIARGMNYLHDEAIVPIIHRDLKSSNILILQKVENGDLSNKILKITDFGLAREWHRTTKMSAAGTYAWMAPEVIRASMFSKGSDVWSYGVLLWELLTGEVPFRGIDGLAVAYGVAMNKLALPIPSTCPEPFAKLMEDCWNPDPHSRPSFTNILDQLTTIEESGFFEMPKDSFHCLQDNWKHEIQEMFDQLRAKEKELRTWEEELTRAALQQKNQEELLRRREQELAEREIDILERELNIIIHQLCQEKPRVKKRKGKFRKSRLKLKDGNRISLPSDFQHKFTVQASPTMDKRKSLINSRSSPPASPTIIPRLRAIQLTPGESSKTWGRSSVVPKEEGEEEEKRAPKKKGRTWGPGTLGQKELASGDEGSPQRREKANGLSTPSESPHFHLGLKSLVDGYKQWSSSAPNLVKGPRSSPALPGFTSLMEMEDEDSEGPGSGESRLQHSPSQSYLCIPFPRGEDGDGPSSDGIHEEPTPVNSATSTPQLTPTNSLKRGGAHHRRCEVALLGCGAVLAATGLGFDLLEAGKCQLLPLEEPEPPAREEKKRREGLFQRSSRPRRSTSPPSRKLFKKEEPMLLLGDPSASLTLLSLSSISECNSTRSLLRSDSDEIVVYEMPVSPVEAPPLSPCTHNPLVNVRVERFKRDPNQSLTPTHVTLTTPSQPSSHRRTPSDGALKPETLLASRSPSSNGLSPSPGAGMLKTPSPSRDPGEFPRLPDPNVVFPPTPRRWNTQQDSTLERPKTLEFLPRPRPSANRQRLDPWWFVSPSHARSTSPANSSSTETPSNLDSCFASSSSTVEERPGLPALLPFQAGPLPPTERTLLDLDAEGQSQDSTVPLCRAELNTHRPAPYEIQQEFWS
Sequence of Tyrosine-protein kinase BTK (Homo sapiens) (Q06187 whole entry): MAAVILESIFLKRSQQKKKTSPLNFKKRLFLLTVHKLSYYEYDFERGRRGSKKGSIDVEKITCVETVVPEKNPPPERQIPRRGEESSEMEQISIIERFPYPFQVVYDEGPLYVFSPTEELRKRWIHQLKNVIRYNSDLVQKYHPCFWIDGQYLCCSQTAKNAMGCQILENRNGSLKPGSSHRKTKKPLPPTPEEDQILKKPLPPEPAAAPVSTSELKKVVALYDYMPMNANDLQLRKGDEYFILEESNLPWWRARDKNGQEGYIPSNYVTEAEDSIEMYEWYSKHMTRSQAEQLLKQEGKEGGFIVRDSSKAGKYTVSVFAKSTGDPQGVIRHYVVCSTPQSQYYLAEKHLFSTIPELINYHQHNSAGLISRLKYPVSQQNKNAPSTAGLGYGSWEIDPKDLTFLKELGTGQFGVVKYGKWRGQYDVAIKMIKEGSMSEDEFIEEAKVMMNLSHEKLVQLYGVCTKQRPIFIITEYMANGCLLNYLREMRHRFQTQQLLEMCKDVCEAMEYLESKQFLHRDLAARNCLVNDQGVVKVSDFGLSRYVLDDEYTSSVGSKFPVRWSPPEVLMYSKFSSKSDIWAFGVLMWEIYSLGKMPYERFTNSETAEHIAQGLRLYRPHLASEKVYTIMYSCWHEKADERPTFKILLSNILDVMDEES
Sequence of Inhibitor of nuclear factor kappa-B kinase subunit beta (Homo sapiens) (O14920 whole entry): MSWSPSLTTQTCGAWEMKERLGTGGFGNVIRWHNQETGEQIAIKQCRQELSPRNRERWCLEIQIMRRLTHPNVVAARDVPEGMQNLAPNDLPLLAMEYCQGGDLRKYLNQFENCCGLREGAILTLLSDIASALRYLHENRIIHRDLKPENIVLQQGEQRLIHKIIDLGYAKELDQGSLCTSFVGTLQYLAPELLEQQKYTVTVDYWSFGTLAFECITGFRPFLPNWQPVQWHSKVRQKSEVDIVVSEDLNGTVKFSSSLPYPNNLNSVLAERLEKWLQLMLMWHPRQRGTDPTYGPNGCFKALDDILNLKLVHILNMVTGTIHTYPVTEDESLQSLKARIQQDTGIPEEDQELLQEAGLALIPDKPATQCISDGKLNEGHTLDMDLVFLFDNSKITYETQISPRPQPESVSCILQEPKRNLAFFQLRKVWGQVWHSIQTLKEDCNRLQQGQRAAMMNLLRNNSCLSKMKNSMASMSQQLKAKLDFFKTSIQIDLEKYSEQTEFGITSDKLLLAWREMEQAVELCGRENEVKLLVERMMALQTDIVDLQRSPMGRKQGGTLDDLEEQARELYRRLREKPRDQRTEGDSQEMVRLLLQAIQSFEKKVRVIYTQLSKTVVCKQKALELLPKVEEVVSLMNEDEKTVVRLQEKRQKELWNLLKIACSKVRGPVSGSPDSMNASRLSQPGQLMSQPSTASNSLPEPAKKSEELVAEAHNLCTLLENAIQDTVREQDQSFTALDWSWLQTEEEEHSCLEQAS
Sequence of Cyclin-dependent kinase-like 2 (Homo sapiens) (Q92772 whole entry): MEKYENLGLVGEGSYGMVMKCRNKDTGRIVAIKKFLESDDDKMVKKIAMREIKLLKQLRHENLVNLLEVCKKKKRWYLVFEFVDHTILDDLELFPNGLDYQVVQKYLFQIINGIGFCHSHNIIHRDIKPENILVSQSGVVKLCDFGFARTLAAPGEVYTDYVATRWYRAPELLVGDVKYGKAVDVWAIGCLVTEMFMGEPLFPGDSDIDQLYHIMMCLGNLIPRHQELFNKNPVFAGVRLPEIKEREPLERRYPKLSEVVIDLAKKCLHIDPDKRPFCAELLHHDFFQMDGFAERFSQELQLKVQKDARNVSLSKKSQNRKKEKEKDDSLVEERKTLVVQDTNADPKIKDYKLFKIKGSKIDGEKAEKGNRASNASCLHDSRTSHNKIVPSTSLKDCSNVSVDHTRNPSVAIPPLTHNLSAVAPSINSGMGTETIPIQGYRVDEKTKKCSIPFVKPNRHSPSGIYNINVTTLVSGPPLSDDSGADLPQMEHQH
Sequence of Serine/threonine-protein kinase Chk2 (Homo sapiens) (O96017 whole entry): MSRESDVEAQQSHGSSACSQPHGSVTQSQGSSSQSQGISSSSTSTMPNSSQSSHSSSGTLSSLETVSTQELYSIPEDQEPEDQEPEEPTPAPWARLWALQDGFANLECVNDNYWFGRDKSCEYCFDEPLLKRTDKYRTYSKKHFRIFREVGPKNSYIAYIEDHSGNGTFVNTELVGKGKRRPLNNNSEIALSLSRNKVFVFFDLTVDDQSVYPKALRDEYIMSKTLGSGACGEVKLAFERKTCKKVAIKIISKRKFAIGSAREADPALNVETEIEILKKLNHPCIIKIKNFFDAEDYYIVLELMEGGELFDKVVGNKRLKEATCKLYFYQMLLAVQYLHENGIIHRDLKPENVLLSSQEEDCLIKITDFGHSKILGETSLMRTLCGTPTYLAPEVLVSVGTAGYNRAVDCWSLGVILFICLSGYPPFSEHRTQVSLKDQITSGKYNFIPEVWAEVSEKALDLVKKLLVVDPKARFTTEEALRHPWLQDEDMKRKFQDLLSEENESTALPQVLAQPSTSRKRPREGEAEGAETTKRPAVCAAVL

| SMILES | residual activity [1] [%] | residual activity [2] [%] | residual activity [3] [%] | residual activity [5] [%] | residual activity [6] [%] | residual activity [7] [%] | residual activity [8] [%] | residual activity [9] [%] | residual activity [11] [%] | residual activity [12] [%] | residual activity [13] [%] | residual activity [14] [%] | further results |
| --- | --- | --- | --- | --- | --- | --- | --- | --- | --- | --- | --- | --- | --- |
| Cc1c(NC(=O)c2cc(C(N)=O)nc3cc(F)ccc23)c(C(F)(F)F)nn1Cc1ccc(C#N)cc1 [BAY-876] | 100 | 70 | 100 | 75 | 73 | 92 | 92 | 77 | 98 | 86 | 83 | 88 | inhibition [4]: 2.31%; inhibition (Rattus norvegicus): -1.8%; IC50 [10]: 0.27 µM (not active); Ki (Histamine H2 receptor): 8.08 µM; Ki (Histamine H1 receptor [15]): 10 µM |
| Cc1c(NC(=O)c2cc(C(N)=O)nc3cc(F)ccc23)c(C(F)(F)F)nn1Cc1ccc(C(C)(C)C)cc1 [BAY-588] | 100 | 100 | 100 | 100 | 99 | 100 | 100 | 72 | 100 | 100 | 71 | 91 | IC50 [16]: > 10 µM (not active); inhibition [17]: 40.7%; inhibition (Histamine H1 receptor [18]): 46.1%; inhibition [19]: -4.06%; inhibition [20]: -9.45%; inhibition [21]: 3.41% |
